Values after ≈ are worked out from the molar mass of the structure shown. Residues, ends and D or L forms follow the SMILES beside them. No end group written: not given here.
What was measured:
Pseudomonas aeruginosa = assay type: cell-based
Procedure, shortened: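 Peptide fractions were incubated with actively growing bacteria in Mueller Hinton medium at a starting concentration of 3×10^4 cells per ml. Growth was monitored continuously in a Bioscreen C reader; polymyxin B served as reference.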

[1] = test system: murine colon carcinoma cell line CT26; assay type: cell-based; details: 4 h
Description: The cytotoxic effects of the peptides on different human tumour cells were measured using the MTT colorimetric assay (Mosmann, 1983). MIT (3-(4-5-dimethylthiazol-2-yl)-2,5-diphenyl tetrazolium bromide) is a soluble tetrazolium salt yielding a yellow solution when prepared in media or salt solutions lacking phenol red. Dissolved MIT is converted to an insoluble purple formazan by cleavage of the tetrazolium ring by dehydrogenase enzymes. This water insoluble formazan can be solubilized using isopropanol or other solvents and the dissolved material is measured spectrophotometrically. The absorbance was measured as a function of concentration of converted dye. The conversion of the soluble dye to the insoluble purple formazan is utilized in assays for measurement of cell proliferation. […] We used this assay to measure the degree of cell death caused by the peptides.
CT26 and A20 were maintained in RPMI-1640 medium supplemented with 10% heat inactivated FBS and 1% L-glutamine in a humidified atmosphere of 5% CO2 at 37° C. The human embryonic fibroblast cell line, MRC-5, was cultured as a monolayer in MEM medium, under the same conditions as described for the tumour cell lines. CT26 and MRC-5 cells to be used in the assay were grown to a minimum of 75% confluency, trypsinated and split to single cell suspension, counted and centrifuged at 1500 rpm for 7 min. The cell pellet was resuspended to a concentration of 1-2×10^5 cells/ml in RPMI-1640 medium without FBS and L-glutamine-L-alanine (assay-medium). The A20 cells were grown in suspension and adjusted to a concentration of 6×10^5 cells/ml in assay medium. All cell lines were routinely tested for mycoplasma infection using a PCR-based mycoplasma detection kit (MycoSensor PCR Assay Kit, Stratagene), following the supplier's instructions. All cell lines were mycoplasma free.
The cytotoxicity was measured using the MTT method (Mosmann, 1983), with minor modifications. The adherent cells (CT26 and MRC-5) were applied in 96-well culture plates in a volume of 100 μl assay medium and incubated at 37° C. for 24 hours. The A20 cells were applied to the microtiter plates just prior to testing. The medium was removed and the cells were treated with 100 μl of peptide solution (concentrations ranging from 0 to 400 μg/ml), diluted in serum-free medium, and the plates were incubated at 37° C. for 4 hours. Cells treated with Triton X-100 (1%) were used as positive control (100% killing) whereas cells plus medium only were used as negative control. Following the incubation period, 10 and 20 μl MTT (5 mg/ml, dissolved in PBS) were added to each well in the adherent cells (CT26 and MRC-5) and the A20 cells, respectively. After further incubation for 2 hours, a volume of 70 μl of the supernatant was removed and 100 μl acid alcohol (0.04 M HCl in isopropanol) added to each well in the adherent cell lines. For the cells grown in suspension (A20), a volume of 130 μl of the supernatant was removed and 100 μl acid alcohol was added. The plates were placed on a shaker for 1 hour at room temperature and read spectrophotometrically at 590 nm in a microtiter plate reader (Thermomax Molecular devices, New Jersey, USA). Cell survival (%, averaging at least 2 parallels) and IC50 values were estimated as described above.

TNF-α = assay: Inhibition of LPS induced TNF-α response in THP-1 cells (ELISA); assay type: cell-based, human; details: Ratio TC50 (THP-1)/EC50 (anti-TNFα)
Description: FIG. 12. Antiinnflammatory response measured as inhibition of tumor necrosis factor alpha (TNF-α) response in THP-1 cells after stimulation with LPS. THP-1 cells (1×10^6 cells/ml) were treated with P17 derivates in different concentrations for 1 hour, and subsequently stimulated with 100 ng/ml LPS for 6 hours. LPS was used as control for induction of TNF-α. (set as 100% response), RPMI media was used as negative (non-stimulated) control, and cycloheximide (Chx, 10 μg/ml) was used as a an inhibitory control for LPS induced TNF-α. The data presented are the average of two parallells. (A) The effect of the peptides P17 HC and P17 HC (1-20). (B) The effect of the peptides P17 HC (11-20) and P17 HC-Br.
The THP-1 cells (ATCC, TIB-202) were maintained in suspension in RPMI-1640 medium with 25 mM HEPES and 2 mM Glutamax I supplemented with 10% FBS (growth medium) in a humidified atmosphere of 5% CO2 at 37° C. Cells to be used in the assay were grown to a density of 8×10^5-1×10^6 cells/ml. The cells were centrifuged for 7 min at 200 g and the cell pellet was resuspended to a concentration of 10^6 cells/ml in RPMI-1640 with 10% FBS.
To allow examination of antiinflammatory effects of the peptides on basal and stimulated cytokine production, peptide-treated macrophages were cultured in the presence of LPS and the levels of TNF-α were measured. The primary screening was based on a mammalian cell line; the human THP-1 line. This line is of monocyte/macrophage origin and responds to various stimuli by increased production of cytokines, like TNF-α and the IL-1β, (Wang et al. 2000). To induce monocyte-macrophage differentiation, THP-1 cells were cultured in 96-well culture plates (10^6 cells/well) in a volume of 100 μl RPMI 1640 medium, containing 50 ng/ml PMA (which is known to induce the maturation of monocytes) and incubated in a humidified atmosphere of 5% CO2, at 37° C. for 48 hours. The medium was then removed and the cells were washed with PBS, added 100 μl fresh medium (without PMA) and incubated for another 24 hours. Medium was removed and the adherent macrophages were treated with 100 μl of peptide solution (concentrations ranging from 0 to 400 μg/ml), diluted in RPMI-1640 medium with 25 mM HEPES and 2 mM Glutamax I, but without […] (assay medium). After incubation at 37° C. for 1 hour, the cells were added LPS (0.1 μg/ml) and further incubated for 6 hours. […] TNF-α concentrations were quantified by the Human TNF-α ELISA MAX kit (BioLegend), according to the manufacturer's instructions. Duplicate readings for each standard, control and sample were recorded. The average absorbance for each set of standards, controls, and samples was calculated using a standard curve. Concentrations were determined by extrapolation on the standard curve.

CC[C@H](C)[C@H](NC(=O)CNC(=O)[C@H](CO)NC(=O)[C@H](CCCCN)NC(=O)[C@@H](NC(=O)[C@H](C)NC(=O)[C@H](Cc1c[nH]cn1)NC(=O)[C@H](CO)NC(=O)[C@@H](NC(=O)[C@H](CCCCN)NC(=O)[C@H](Cc1c[nH]cn1)NC(=O)[C@H](Cc1ccccc1)NC(=O)[C@@H](NC(=O)[C@H](CCCCN)NC(=O)[C@H](CCCCN)NC(=O)[C@H](Cc1ccccc1)NC(=O)C(Cc1c[nH]c2ccc(Br)cc12)NC(=O)CN)[C@@H](C)O)C(C)C)C(C)C)C(=O)N[C@@H](Cc1c[nH]cn1)C(=O)N[C@@H](C)C(=O)O (stereo partly shown) [P17 HC-Br (1-20)] (HELM PEPTIDE1{G.[O=C(C(Cc1c[nH]c2ccc(Br)cc12)N[*:1])[*:2]].F.K.K.T.F.H.K.V.S.H.A.V.K.S.G.I.H.A}$$$$V2.0; N-terminus and C-terminus assumed)
Minimal inhibitory concentration, P. aeruginosa (Pseudomonas aeruginosa): 6.25 µM (≈ 14.7 µg/mL)
IC50 [1]: 59.7 µM

CC[C@H](C)[C@H](NC(=O)CNC(=O)[C@H](CO)NC(=O)[C@H](CCCCN)NC(=O)[C@@H](NC(=O)[C@H](C)NC(=O)[C@H](Cc1c[nH]cn1)NC(=O)[C@H](CO)NC(=O)[C@@H](NC(=O)[C@H](CCCCN)NC(=O)[C@H](Cc1c[nH]cn1)NC(=O)[C@H](Cc1ccccc1)NC(=O)[C@@H](NC(=O)[C@H](CCCCN)NC(=O)[C@H](CCCCN)NC(=O)[C@H](Cc1ccccc1)NC(=O)C(Cc1c[nH]c2ccc(Br)cc12)NC(=O)CN)[C@@H](C)O)C(C)C)C(C)C)C(=O)N[C@@H](Cc1c[nH]cn1)C(=O)N[C@@H](C)C(=O)NCC(=O)N[C@@H](CCC(N)=O)C(=O)N[C@@H](CCCNC(=N)N)C(=O)NCC(=O)N[C@@H](CS)C(=O)N[C@@H](CO)C(=O)N[C@@H](C)C(=O)N[C@@H](CC(C)C)C(=O)NCC(=O)N[C@@H](Cc1ccccc1)C(=O)O (stereo partly shown) [P17 HC-Br] (HELM PEPTIDE1{G.[O=C(C(Cc1c[nH]c2ccc(Br)cc12)N[*:1])[*:2]].F.K.K.T.F.H.K.V.S.H.A.V.K.S.G.I.H.A.G.Q.R.G.C.S.A.L.G.F}$$$$V2.0)
Therapeutic index TC50/EC50 (TNF-α): 46.5
Minimal inhibitory concentration, P. aeruginosa (Pseudomonas aeruginosa): 3.12 µM (≈ 10.4 µg/mL)
IC50 [1]: 33.1 µM

GWFKKTFHKVSHAVKSGIHA [P17 HC (1-20)]
Therapeutic index TC50/EC50 (TNF-α): >17.4
Minimal inhibitory concentration, P. aeruginosa (Pseudomonas aeruginosa): 6.25 µM

GWFKKTFHKVSHAVKSGIHAGQRGCSALGF [P17 HC]
Therapeutic index TC50/EC50 (TNF-α): 13.6
Minimal inhibitory concentration, P. aeruginosa (Pseudomonas aeruginosa): 3.12 µM
IC50 [1]: 20.4 µM

— patent US20100093642A1, “NOVEL POLYPEPTIDES” (priority 2006, published 2010)
